IC50 and Kd data for 23 compounds are collected here from patent US20220324835A1 (Nurix Therapeutics, Inc., priority 2018, published 2022).

Test [1] concerns the target T1, Cbl-b (Homo sapiens, UniProt Q13191). Briefly: Cbl-b activity assay (Cbl-b inhibition assay), TR-FRET of Cbl-b interaction with UbcH5B-Ub. The format is biochemical. The method, boiled down:
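TR-FRET readout of Cbl-b binding to Bodipy-fluorescein N-terminally labeled Ub conjugated to UbcH5B C85K, measured with compound present. After compound incubation, 60 nM Src kinase with 1 mM ATP and 5 mM MgCl2 (final) was added for 1.5 h, then a further 1 h incubation; asterisked values used 50 mM NaCl buffer and 30 nM Src.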

Test [2] has as its target Cbl-b (residues 36-427) (Homo sapiens, UniProt Q13191). Briefly: Cbl-b binding assay (SPR, Biacore T200). The conditions noted are these: 20° C., 1:1 binding model. The method, boiled down: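 Affinities derived from global 1:1 steady-state or kinetic fits of double-referenced, solvent-corrected SPR data, 20 °C, NeutrAvidin-capture chip. Compound series (top 100 or 50 μM, 8–10 points) injected 50 s, 90–180 s dissociation. Asterisked values used 50 mM instead of 100 mM NaCl and 30 nM Src kinase.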
On the technique in general: Surface plasmon resonance follows binding to a sensor surface in real time, without labels.

In test [3] the target is T1, Cbl-b. Put plainly: Cbl-b inhibition assay (Cbl-b activity assay, FRET, Biological Example 1; 100 mM NaCl, 60 nM Src kinase). The format is biochemical. The conditions noted are these: upper bound stated in text lists; read-out: IC50 values in the Cbl-b inhibition assay of Biological Example 1. An outline of the steps: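 Here, the E2 UbcH5B, irreversibly linked to Bodipy-fluorescein ubiquitin, binds Cbl-b once Src kinase phosphorylates it; Cbl-b carries an N-terminal biotinylated Avi-tag captured by streptavidin-terbium. An absent FRET signal indicates inhibition.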

Where [4] appears, read: assay buffer with 100 mM NaCl, 60 nM Src kinase, read-out: Cbl-b activity IC50.
Where [5] appears, read: * assay buffer containing 50 mM NaCl instead of 100 mM NaCl and 30 nM Src kinase instead of 60 nM, read-out: Cbl-b activity IC50 (μM)*.

Cbl-b (residues 36-427), sequence (Q13191 36-427): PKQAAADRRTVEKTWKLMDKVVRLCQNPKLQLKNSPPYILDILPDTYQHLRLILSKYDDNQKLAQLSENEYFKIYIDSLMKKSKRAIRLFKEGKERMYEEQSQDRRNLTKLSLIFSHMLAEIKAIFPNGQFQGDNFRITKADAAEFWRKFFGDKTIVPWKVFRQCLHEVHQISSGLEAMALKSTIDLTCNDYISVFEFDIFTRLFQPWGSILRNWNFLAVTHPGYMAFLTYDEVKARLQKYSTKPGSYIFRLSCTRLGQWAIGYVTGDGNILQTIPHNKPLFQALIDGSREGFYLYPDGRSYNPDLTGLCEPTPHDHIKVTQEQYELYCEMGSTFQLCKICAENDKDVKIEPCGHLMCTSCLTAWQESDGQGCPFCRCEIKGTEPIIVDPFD
T1 sequence (Q13191 36-427): as above

`C[C@H](Sc1nncn1C)c1ccnc(NC(=O)c2cc(C(F)(F)F)c3ccccc3n2)c1` [Compound 111, (S)-N-(4-(1-((4-methyl-4H-1,2,4-triazol-3-yl)thio)ethyl)pyridin-2-yl)-4-(trifluoromethyl)quinoline-2-carboxamide]: the results for the IC50 in test [1] (setting [4]) and in test [3] were 3 to 10 µM and at most 10 µM, respectively. Further, the Kd (as a rule, the concentration at which binding is half-saturated) in test [2] was 3 to 10 µM.

Turning to `C[C@H](Sc1nncn1C)c1ccnc(NC(=O)c2ccc3ccccc3n2)c1` [Compound 112, (S)-N-(4-(1-((4-methyl-4H-1,2,4-triazol-3-yl)thio)ethyl)pyridin-2-yl)quinoline-2-carboxamide], the IC50 (as a rule, the concentration at which inhibition is half-maximal) in test [1] (setting [5]) is 1 to 3 µM; in test [1] (setting [4]), 0.301 to 1 µM; in test [3], at most 1 µM. Moreover, the Kd in test [2] lay in the range of 3 to 10 µM.

Take `C[C@H](Sc1nncn1C)c1ccnc(NC(=O)c2cc(C(F)(F)F)c(Cl)cn2)c1` [Compound 114, (S)-5-chloro-N-(4-(1-((4-methyl-4H-1,2,4-triazol-3-yl)thio)ethyl)pyridin-2-yl)-4-(trifluoromethyl)picolinamide]: the IC50 is 3 to 10 µM in test [1] (setting [4]) and at most 10 µM in test [3]. For the same compound, in test [2], the Kd was above 10 µM.

As for `C[C@H](Sc1nncn1C)c1ccnc(NC(=O)c2cccc(S(F)(F)(F)(F)F)c2)c1` [Compound 116, N-[4-[(1S)-1-[(4-methyl-1,2,4-triazol-3-yl)sulfanyl]ethyl]-2-pyridyl]-3-(pentafluoro-λ^6-sulfanyl)benzamide], the IC50 in test [1] (setting [4]) is 3 to 10 µM; in test [3], at most 10 µM. In test [2], this compound came in with a Kd of 3 to 10 µM.

As to `C[C@H](Sc1nncn1C)c1ccnc(NC(=O)c2cccc(C3CC3)n2)c1` [Compound 117, 6-cyclopropyl-N-[4-[(1S)-1-[(4-methyl-1,2,4-triazol-3-yl)sulfanyl]ethyl]-2-pyridyl]pyridine-2-carboxamide], the IC50 in test [1] (setting [4]) was 1 to 3 µM; in test [3] it was at most 10 µM. In test [2], this compound came in with a Kd of 3 to 10 µM.

Regarding `C[C@H](Sc1nncn1C)c1ccnc(NC(=O)c2nc3ccccc3s2)c1` [Compound 121, N-[4-[(1S)-1-[(4-methyl-1,2,4-triazol-3-yl)sulfanyl]ethyl]-2-pyridyl]-1,3-benzothiazole-2-carboxamide], the results for the concentration for half-maximal inhibition (IC50) in test [1] (setting [4]) and in test [3] were 3 to 10 µM and at most 10 µM, respectively. In test [2], this compound came in with a Kd of 3 to 10 µM.

With `C[C@H](Sc1nncn1C)c1ccnc(NC(=O)c2cccc(OC(F)(F)F)n2)c1` [Compound 122, (S)-N-(4-(1-((4-methyl-4H-1,2,4-triazol-3-yl)thio)ethyl)pyridin-2-yl)-6-(trifluoromethoxy)picolinamide], the figures for the IC50 in test [1] (setting [4]) and in test [3] were 1 to 3 µM and at most 10 µM, respectively. In test [2], this compound had a Kd of 1 to 3 µM.

As to `CCc1cccc(C(=O)Nc2cc([C@H](C)Sc3nncn3C)ccn2)n1` [Compound 123, (S)-6-ethyl-N-(4-(1-((4-methyl-4H-1,2,4-triazol-3-yl)thio)ethyl)pyridin-2-yl)picolinamide], the IC50 is 1 to 3 µM in test [1] (setting [4]) and at most 10 µM in test [3]. Also, in test [2], the Kd is 3 to 10 µM.

Regarding `C[C@H](Sc1nncn1C)c1ccnc(NC(=O)c2cccc(Cl)n2)c1` [Compound 124, 6-chloro-N-[4-[(LV)-1-[(4-methyl-1,2,4-triazol-3-yl)sulfanyl]ethyl]-2-pyridyl]pyridine-2-carboxamide], the IC50 was 1 to 3 µM in test [1] (setting [4]) and at most 10 µM in test [3]. Also, the Kd in test [2] lay within 3 to 10 µM.

As for `COc1nc(C(=O)Nc2cc([C@H](C)Sc3nncn3C)ccn2)ccc1Cl` [Compound 125, (S)-5-chloro-6-methoxy-N-(4-(1-((4-methyl-4H-1,2,4-triazol-3-yl)thio)ethyl)pyridin-2-yl)picolinamide], the IC50 was 1 to 3 µM in test [1] (setting [4]) and at most 10 µM in test [3]. For the same compound, in test [2], the Kd was in the range of 3 to 10 µM.

`C[C@H](Sc1nncn1C)c1ccnc(NC(=O)c2cc(N3CC[C@H](O)C3)cc(C(F)(F)F)n2)c1` [Compound 126, 4-[(3S)-3-hydroxypyrrolidin-1-yl]-N-[4-[(1S)-1-[(4-methyl-1,2,4-triazol-3-yl)sulfanyl]ethyl]-2-pyridyl]-6-(trifluoromethyl)pyridine-2-carboxamide]: the IC50 in test [1] (setting [4]) was 1 to 3 µM; in test [3], at most 10 µM. The compound also came in with a Kd in test [2] of 3 to 10 µM.

As to `C=CCC(Sc1nncn1C)c1cccc(NC(=O)c2ccc3ccccc3n2)c1` (stereo not drawn) [Compound 134, N-[3-[1-[(4-methyl-1,2,4-triazol-3-yl)sulfanyl]but-3-enyl]phenyl]quinoline-2-carboxamide], the results for the half-inhibitory concentration (IC50) in test [1] (setting [5]), in test [1] (setting [4]) and in test [3] were 1 to 3 µM, 1 to 3 µM and at most 10 µM, respectively. Further, the dissociation constant Kd in test [2] was above 10 µM.

Turning to `C=CCC(Sc1nncn1C)c1cccc(NC(=O)c2cc3ccccc3cn2)c1` (stereo not drawn) [Compound 135, N-[3-[1-[(4-methyl-1,2,4-triazol-3-yl)sulfanyl]but-3-enyl]phenyl]isoquinoline-3-carboxamide], the IC50 is 3 to 10 µM in test [1] (setting [5]), 1 to 3 µM in test [1] (setting [4]) and at most 10 µM in test [3]. This compound gave a Kd in test [2] above 10 µM.

For `C[C@H](Sc1nncn1C)c1cccc(NC(=O)c2cc(C(=O)N3CCCC3)ccn2)c1` [Compound 138, (S)-N-(3-(1-((4-methyl-4H-1,2,4-triazol-3-yl)thio)ethyl)phenyl)-4-(pyrrolidine-1-carbonyl)picolinamide], the IC50 in test [1] (setting [4]) is 3 to 10 µM; in test [3], at most 10 µM. In test [2], this compound returned a Kd above 10 µM.

On to `C[C@H](Sc1nncn1C)c1cccc(NC(=O)c2cc(C(=O)N3CC[C@@H](O)C3)ccn2)c1` [Compound 139, 4-((R)-3-hydroxypyrrolidine-1-carbonyl)-N-(3-((S)-1-((4-methyl-4H-1,2,4-triazol-3-yl)thio)ethyl)phenyl)picolinamide], for which the IC50 is 3 to 10 µM in test [1] (setting [4]) and at most 10 µM in test [3]. The compound further showed a Kd in test [2] of 3 to 10 µM.

Take `CO[C@@H]1CCN(C(=O)c2ccnc(C(=O)Nc3cccc([C@H](C)Sc4nncn4C)c3)c2)C1` [Compound 141, 4-((R)-3-methoxypyrrolidine-1-carbonyl)-N-(3-((S)-1-((4-methyl-4H-1,2,4-triazol-3-yl)thio)ethyl)phenyl)picolinamide]: the IC50 is 3 to 10 µM in test [1] (setting [4]) and at most 10 µM in test [3]. The compound also returned a dissociation constant (Kd) in test [2] of 3 to 10 µM.

With `C[C@H](Sc1nncn1C)c1cccc(NC(=O)c2cc(C(=O)N3CCC3)ccn2)c1` [Compound 143, (S)-4-(azetidine-1-carbonyl)-N-(3-(1-((4-methyl-4H-1,2,4-triazol-3-yl)thio)ethyl)phenyl)picolinamide], the IC50 was 3 to 10 µM in test [1] (setting [4]) and at most 10 µM in test [3]. For the same compound, in test [2], the Kd was in the range of 3 to 10 µM.

Regarding `C[C@H](Sc1nncn1C)c1cccc(NC(=O)c2cc(C(=O)N3CCCCC3)ccn2)c1` [Compound 144, (S)-N-(3-(1-((4-methyl-4H-1,2,4-triazol-3-yl)thio)ethyl)phenyl)-4-(piperidine-1-carbonyl)picolinamide], the figures for the IC50 in test [1] (setting [4]) and in test [3] were 3 to 10 µM and at most 10 µM, respectively. In test [2], this compound gave a Kd of 3 to 10 µM.

Regarding `C[C@H](Sc1nncn1C)c1cccc(NC(=O)c2cc(C(=O)N3CCC(O)CC3)ccn2)c1` [Compound 145, (S)-4-(4-hydroxypiperidine-1-carbonyl)-N-(3-(1-((4-methyl-4H-1,2,4-triazol-3-yl)thio)ethyl)phenyl)picolinamide], the values for the IC50 in test [1] (setting [4]) and in test [3] were 1 to 3 µM and at most 10 µM, respectively. Further, the Kd in test [2] was in the range of 3 to 10 µM.

In the case of `C[C@H](Sc1nncn1C)c1cccc(NC(=O)c2cc(C(=O)N3CC[C@@H](N)C3)ccn2)c1` [Compound 146, 4-((R)-3-aminopyrrolidine-1-carbonyl)-N-(3-((S)-1-((4-methyl-4H-1,2,4-triazol-3-yl)thio)ethyl)phenyl)picolinamide], the IC50 was 3 to 10 µM in test [1] (setting [4]) and at most 10 µM in test [3]. Also, in test [2], the Kd was 3 to 10 µM.

Consider `C[C@H](Sc1nncn1C)c1cccc(NC(=O)c2cc(C(=O)N3CC[C@H](N)C3)ccn2)c1` [Compound 147, 4-((S)-3-aminopyrrolidine-1-carbonyl)-N-(3-((S)-1-(4-methyl-4H-1,2,4-triazol-3-ylthio)ethyl)phenyl)picolinamide], for which the results for the IC50 in test [1] (setting [4]) and in test [3] were 3 to 10 µM and at most 10 µM, respectively. Besides, the Kd in test [2] lay within 3 to 10 µM.

With `C[C@H](Sc1nncn1C)c1cccc(NC(=O)c2cc(C(=O)N3CCC[C@@H](O)C3)ccn2)c1` [Compound 149, 4-((R)-3-hydroxypiperidine-1-carbonyl)-N-(3-((S)-1-((4-methyl-4H-1,2,4-triazol-3-yl)thio)ethyl)phenyl)picolinamide], the IC50 was 3 to 10 µM in test [1] (setting [4]) and at most 10 µM in test [3]. In test [2], this compound had a Kd above 10 µM.

As to `C[C@H](Sc1nncn1C)c1cccc(NC(=O)c2cc(C(=O)N3CCC[C@H](O)C3)ccn2)c1` [Compound 150, 4-((S)-3-hydroxypiperidine-1-carbonyl)-N-(3-((S)-1-((4-methyl-4H-1,2,4-triazol-3-yl)thio)ethyl)phenyl)picolinamide], the results for the IC50 in test [1] (setting [4]) and in test [3] were 3 to 10 µM and at most 10 µM, respectively. The same compound displayed a Kd in test [2] above 10 µM.
